The values below come from ChEMBL document CHEMBL1268821, “Inhibitors of the tyrosine kinase EphB4. Part 3: identification of non-benzodioxole-based kinase inhibitors” (Bioorg Med Chem Lett, 2010).

The subject of data set [1] is Rattus norvegicus. The data set is described as follows: Hepatic blood flow in Han Wistar rat at […], iv and 5 mg/kg, po. The class given is ADME, organism-based, Liver. Conditions: in vivo.
Data set [2] can be described thus: Plasma concentration in nude mouse at 100 mg/kg, po measured at 4 hrs. The class given is ADME, organism-based. Further details: dose 100 mg/kg, route oral.
Data set [3] in a line: AUC (0 to 24 hrs) in nude mouse at 100 mg/kg, po. It counts as ADME, organism-based. Also noted: time < 24 hr, dose 100 mg/kg, route oral. Conditions: plasma.
The nature of data set [4]: Plasma concentration in nude mouse at 100 mg/kg, po measured at 24 hrs. It counts as ADME, organism-based. Also noted: dose 100 mg/kg, route oral.
Data set [5] can be described thus: Bioavailability in Han Wistar rat at […], iv and 5 mg/kg, po. The class given is ADME, organism-based. Conditions: in vivo.
The nature of data set [6]: Plasma concentration in nude mouse at 100 mg/kg, po measured at 1 hr. Further details: dose 100 mg/kg, route oral. The class given is ADME, organism-based.
Data set [7] can be described thus: Volume of distribution at steady state in Han Wistar rat at […], iv and 5 mg/kg, po. The class given is ADME, organism-based. Conditions: in vivo, read-out: Vdss.

As usually defined, the AUC(0-t) is the area under the concentration-time curve up to a stated or last time point. Higher therefore signals more exposure. As usually defined, the bioavailability is dose-corrected exposure relative to a reference, in per cent. A low value points to poor availability. For the compound `CN(c1ccnc(Nc2cc(N3CCOCC3)cc(N3CCOCC3)c2)n1)c1cccc2[nH]ncc12`, in data set [1], the QH is recorded as 19%. This compound displayed a concentration at 4 h in data set [2] of 1900 nM. In data set [3], this compound came in with an AUC(0-t) at 24 h of 48.7 µM·h. In data set [4], the concentration at 24 h was 1800 nM. The same compound showed a bioavailability in data set [5] of 65%. Moreover, in data set [6], the concentration at 1 h was found to be 11000 nM. Also, the Vd in data set [7] was 0.8 L/kg.
